Experimental data as given in US10934311B2, “Heterocyclic compound used as FGFR inhibitor” (Hangzhou Innogate Pharma Co., Ltd., priority 2016, dated 2021).

Key:
[1] = target: FGFR1 (Homo sapiens, UniProt P11362); test: FGFR1 kinase activity inhibition (Caliper mobility shift assay); type: biochemical; conditions: read-out: FGFR kinase activity inhibition (IC50, nM) FGFR1
Method: (§1) 1. FGFR1, FGFR2, FGFR3, and FGFR4 Kinase Activity Inhibition Experiments The FGFR1, FGFR2, FGFR3, and FGFR4 protein kinase activities were measured using the Caliper mobility shift assay. Compounds were solubilized in DMSO and diluted in kinase buffer. 5 µL of compound at 5 times final concentration (10% DMSO) was added to a 384-well plate. 10 μL of a 2.5-fold enzyme (FGFR1, FGFR2, FGFR3, and FGFR4, respectively) solution was added and incubated at room temperature for 10 minutes, followed by the addition of […] of a 2.5-fold substrate (FAM-labeled peptide and ATP) solution. The reaction was incubated for 30-60 minutes at 28° C., then stopped by adding 25 μL of stop solution (pH 7.5 100 mM HEPES, 0.015% Brij-35, 0.2% Coating Reagent #3, 50 mM EDTA). Conversion data was read on the Caliper EZ Reader II (Caliper Life Sciences). The conversion rate was converted into inhibition rate (% inhibition rate=(max−sample conversion rate)/(max−min)*100). Where max refers to the conversion of the DMSO control and min refers to the conversion of the non-enzymatic live control. With the compound concentration and inhibition rate plotted on the abscissa and the vertical axis, the curve was fitted using XLFit excel add-in version 4.3.1 software and the IC50 was calculated.

[2] = target: FGFR2 (Homo sapiens, UniProt P21802); test: FGFR2 kinase activity inhibition (Caliper mobility shift assay); type: biochemical; conditions: read-out: FGFR kinase activity inhibition (IC50, nM) FGFR2
Method: as §1

[3] = target: FGFR3 (Homo sapiens, UniProt P22607); test: FGFR3 kinase activity inhibition (Caliper mobility shift assay); type: biochemical; conditions: read-out: FGFR kinase activity inhibition (IC50, nM) FGFR3
Method: as §1

[4] = target: FGFR4 (Homo sapiens, UniProt P22455); test: FGFR4 kinase activity inhibition (Caliper mobility shift assay); type: biochemical; conditions: read-out: FGFR kinase activity inhibition (IC50, nM) FGFR4
Method: as §1

[5] = tested on: SNU-16 tumor cells; test: Inhibition test against SNU-16 tumor cell proliferation (CTG); type: cell-based; conditions: Homo sapiens, 72 hours drug treatment, CTG readout, read-out: Inhibits of SNU-16 tumor cells proliferation (IC50, nM) SNU-16
Method: 2. Compounds' Inhibition Test Against SNU-16 Tumor Cell Proliferation
SNU-16 cell suspension was adjusted to 5.56×10e4/mL with RPMI 1640 medium. Add 90 μL of cell suspension to 96-well cell culture plates per well for a final cell concentration of 5000 cells/well. The test compound was dissolved in DMSO as a 10 mM stock solution. The 3× series of serial dilutions were prepared with stock and DMSO and then diluted 100-fold with media. Finally, 10 μL of the corresponding 10× solution was added to each well of each cell, and each drug concentration was 2 replicates. The final concentration of each compound was 1000 nM, 333.3 nM, 111.1 nM, 37.04 nM, 12.35 nM, 4.115 nM, 1.372 nM, 0.457 nM, 0.152 nM, the final concentration of DMSO per well is 0.1%. Place in a 37° C., 5% CO2 incubator for 72 hours. After 72 hours of drug treatment, add 50 μL (1/2 culture volume) of CTG solution that has been previously thawed and equilibrated to room temperature per well according to CTG instructions, mix for 2 minutes using a microplate shaker, and allow to stand at room temperature for 10 minutes. The Envision 2104 reader was used to determine the […] signal value. Cell viability formula: Vsample/Vvehicle control×100% for calculation. Wherein Vsample is the reading of the drug treatment group and, Vvehicle control is the average of the solvent control group. Using the GraphPad Prism 5.0 software, a sigmoidal dose-survival curve was plotted using a non-linear regression model and IC50 values were calculated.

FGFR2, sequence (P21802 22-821): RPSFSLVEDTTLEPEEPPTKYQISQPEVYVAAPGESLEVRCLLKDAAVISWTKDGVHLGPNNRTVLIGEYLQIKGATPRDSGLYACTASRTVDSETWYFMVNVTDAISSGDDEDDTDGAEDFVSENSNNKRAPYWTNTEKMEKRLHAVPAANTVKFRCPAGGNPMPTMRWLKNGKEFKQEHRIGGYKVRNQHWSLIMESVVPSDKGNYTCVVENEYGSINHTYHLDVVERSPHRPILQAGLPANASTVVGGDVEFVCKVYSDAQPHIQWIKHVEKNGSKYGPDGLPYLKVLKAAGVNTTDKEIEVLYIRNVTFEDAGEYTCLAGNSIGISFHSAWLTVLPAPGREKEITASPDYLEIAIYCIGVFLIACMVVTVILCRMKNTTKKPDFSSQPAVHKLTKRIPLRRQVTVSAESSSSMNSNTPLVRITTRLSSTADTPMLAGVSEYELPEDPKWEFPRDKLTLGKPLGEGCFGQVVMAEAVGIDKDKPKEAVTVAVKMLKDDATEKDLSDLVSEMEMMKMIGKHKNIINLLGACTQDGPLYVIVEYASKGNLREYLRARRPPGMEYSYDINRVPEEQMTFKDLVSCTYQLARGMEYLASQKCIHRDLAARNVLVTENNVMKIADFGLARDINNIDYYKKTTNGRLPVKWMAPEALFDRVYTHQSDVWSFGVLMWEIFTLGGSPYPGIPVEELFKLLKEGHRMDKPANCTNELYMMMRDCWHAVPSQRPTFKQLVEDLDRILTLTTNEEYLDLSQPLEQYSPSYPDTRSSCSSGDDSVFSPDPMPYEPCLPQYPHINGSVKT
FGFR3, sequence (P22607 23-806): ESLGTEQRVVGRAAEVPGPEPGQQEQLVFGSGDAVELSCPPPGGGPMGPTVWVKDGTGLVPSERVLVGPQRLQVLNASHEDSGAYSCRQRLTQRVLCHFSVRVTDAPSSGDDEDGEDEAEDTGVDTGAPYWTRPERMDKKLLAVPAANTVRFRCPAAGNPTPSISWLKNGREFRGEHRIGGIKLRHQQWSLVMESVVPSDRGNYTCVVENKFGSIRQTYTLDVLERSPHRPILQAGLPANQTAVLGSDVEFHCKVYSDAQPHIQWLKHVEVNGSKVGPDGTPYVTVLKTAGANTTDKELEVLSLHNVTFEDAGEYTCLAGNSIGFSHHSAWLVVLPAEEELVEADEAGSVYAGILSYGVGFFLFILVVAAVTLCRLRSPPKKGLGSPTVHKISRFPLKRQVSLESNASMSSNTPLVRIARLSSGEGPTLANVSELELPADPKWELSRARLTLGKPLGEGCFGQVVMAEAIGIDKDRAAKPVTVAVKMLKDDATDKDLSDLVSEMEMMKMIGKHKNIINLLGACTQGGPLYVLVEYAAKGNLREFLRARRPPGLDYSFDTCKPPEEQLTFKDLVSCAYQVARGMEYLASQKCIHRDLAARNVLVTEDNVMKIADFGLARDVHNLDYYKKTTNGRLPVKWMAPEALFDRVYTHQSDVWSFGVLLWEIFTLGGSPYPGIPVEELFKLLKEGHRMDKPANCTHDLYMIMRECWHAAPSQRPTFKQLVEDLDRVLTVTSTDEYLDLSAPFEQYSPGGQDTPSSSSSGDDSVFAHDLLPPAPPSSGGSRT
FGFR4, sequence (P22455 22-802): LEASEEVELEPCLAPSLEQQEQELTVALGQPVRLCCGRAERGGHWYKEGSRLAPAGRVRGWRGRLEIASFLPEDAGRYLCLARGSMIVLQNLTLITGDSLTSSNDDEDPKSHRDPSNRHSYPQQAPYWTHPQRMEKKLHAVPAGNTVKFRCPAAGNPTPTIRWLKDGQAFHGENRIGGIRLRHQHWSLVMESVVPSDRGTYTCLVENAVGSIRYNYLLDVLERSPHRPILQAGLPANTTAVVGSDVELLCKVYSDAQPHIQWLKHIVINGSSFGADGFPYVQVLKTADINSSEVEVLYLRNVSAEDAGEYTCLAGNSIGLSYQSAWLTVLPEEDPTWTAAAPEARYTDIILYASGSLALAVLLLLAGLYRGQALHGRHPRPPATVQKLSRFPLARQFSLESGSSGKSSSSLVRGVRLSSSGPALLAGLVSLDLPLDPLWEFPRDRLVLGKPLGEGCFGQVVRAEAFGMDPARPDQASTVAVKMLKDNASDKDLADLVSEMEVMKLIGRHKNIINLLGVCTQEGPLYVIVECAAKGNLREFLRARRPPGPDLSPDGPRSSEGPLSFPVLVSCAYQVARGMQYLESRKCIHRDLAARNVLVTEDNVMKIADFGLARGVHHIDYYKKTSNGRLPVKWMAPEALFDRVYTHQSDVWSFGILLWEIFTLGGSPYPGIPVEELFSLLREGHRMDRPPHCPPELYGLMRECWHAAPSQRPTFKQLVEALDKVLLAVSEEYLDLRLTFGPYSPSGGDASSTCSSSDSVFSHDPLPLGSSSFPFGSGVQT
FGFR1, sequence (P11362 22-822): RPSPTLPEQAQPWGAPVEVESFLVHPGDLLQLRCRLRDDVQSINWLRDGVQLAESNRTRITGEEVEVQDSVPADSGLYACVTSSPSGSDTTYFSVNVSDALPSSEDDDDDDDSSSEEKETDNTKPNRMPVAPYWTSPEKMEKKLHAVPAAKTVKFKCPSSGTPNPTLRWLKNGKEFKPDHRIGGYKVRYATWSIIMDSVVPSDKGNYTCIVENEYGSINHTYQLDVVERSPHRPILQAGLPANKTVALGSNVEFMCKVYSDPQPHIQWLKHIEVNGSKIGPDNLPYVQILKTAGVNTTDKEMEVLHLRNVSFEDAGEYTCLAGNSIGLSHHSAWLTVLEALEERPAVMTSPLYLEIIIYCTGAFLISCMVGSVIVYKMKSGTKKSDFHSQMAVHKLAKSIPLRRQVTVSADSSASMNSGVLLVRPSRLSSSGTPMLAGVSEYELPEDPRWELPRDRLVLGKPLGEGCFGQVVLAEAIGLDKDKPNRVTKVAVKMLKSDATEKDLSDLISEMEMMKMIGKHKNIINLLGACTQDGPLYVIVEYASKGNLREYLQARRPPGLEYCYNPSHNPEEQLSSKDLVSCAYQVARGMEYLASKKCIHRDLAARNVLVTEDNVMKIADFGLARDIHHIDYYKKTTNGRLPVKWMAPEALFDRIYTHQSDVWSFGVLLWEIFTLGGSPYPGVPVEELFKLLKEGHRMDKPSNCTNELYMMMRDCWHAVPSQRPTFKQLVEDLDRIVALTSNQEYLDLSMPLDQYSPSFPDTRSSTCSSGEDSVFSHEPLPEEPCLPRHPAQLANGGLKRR

Structure (SMILES)	IC50 [1]	IC50 [2]	IC50 [3]	IC50 [4]	IC50 [5]
COc1cc(OC)c(Cl)c(NC(=O)N(C)c2cc(Nc3ccc4c(c3)OC[C@H]3COCCN43)ncn2)c1Cl [Compound 8R]	< 20 nM	< 20 nM	–	–	–
COc1cc(OC)c(Cl)c(NC(=O)N(C)c2cc(Nc3ccc4c(c3)OC[C@H]3CN(C)CCN43)ncn2)c1Cl [Compound 2R]	< 10 nM	< 10 nM	< 10 nM	< 200 nM	< 10 nM
C=CC(=O)Nc1cc2c(cc1Nc1cc(N(C)C(=O)Nc3c(Cl)c(OC)cc(OC)c3Cl)ncn1)OC[C@@H]1CN(C)CCN21 [Compound 5S]	> 1000 nM	> 1000 nM	> 1000 nM	< 20 nM	–
COc1cc(OC)c(Cl)c(NC(=O)N(C)c2cc(Nc3ccc4c(c3)OCCN(C)CCO4)ncn2)c1Cl [Compound 1]	< 20 nM	–	< 20 nM	–	–
CCS(=O)(=O)N1CCN2c3ccc(Nc4cc(N(C)C(=O)Nc5c(Cl)c(OC)cc(OC)c5Cl)ncn4)cc3OC[C@H]2C1 [Compound 10R]	< 50 nM	< 50 nM	–	–	–
C=CC(=O)Nc1ccc(CN(C(=O)Nc2c(Cl)c(OC)cc(OC)c2Cl)c2cc(Nc3ccc4c(c3)OC[C@@H]3CN(C)CCN43)ncn2)cc1 [Compound 11S]	< 50 nM	–	–	< 200 nM	–

Continued, values first:

IC50 [1]	IC50 [2]	IC50 [3]	IC50 [4]	IC50 [5]	Structure (SMILES)
< 10 nM	< 10 nM	–	–	–	COc1cc(OC)c(Cl)c(NC(=O)N(C)c2cc(Nc3ccc4c(c3)OC[C@H]3CN(C(C)=O)CCN43)ncn2)c1Cl [Compound 7R]
< 10 nM	< 10 nM	< 10 nM	< 200 nM	< 10 nM	COc1cc(OC)c(Cl)c(NC(=O)N(C)c2cc(Nc3ccc4c(c3)OC[C@@H]3CN(C)CCN43)ncn2)c1Cl [Compound 2S]
< 10 nM	< 10 nM	–	–	–	CCN1CCN2c3ccc(Nc4cc(N(C)C(=O)Nc5c(Cl)c(OC)cc(OC)c5Cl)ncn4)cc3OC[C@H]2C1 [Compound 4R]
< 10 nM	< 10 nM	< 10 nM	< 200 nM	< 10 nM	CCN1CCN2c3ccc(Nc4cc(N(C)C(=O)Nc5c(Cl)c(OC)cc(OC)c5Cl)ncn4)cc3OC[C@@H]2C1 [Compound 4S]
< 10 nM	–	< 10 nM	–	–	COc1cc(OC)c(Cl)c(NC(=O)N(C)c2cc(Nc3ccc4c(c3)OCC3CN(C)CCN43)ncn2)c1Cl (stereo not shown) [Compound 2]
< 20 nM	< 50 nM	–	–	–	COc1cc(OC)c(Cl)c(NC(=O)N(C)c2cc(Nc3ccc4c(c3)OC[C@H]3CN(C5CC5)CCN43)ncn2)c1Cl [Compound 6R]
< 10 nM	< 10 nM	–	–	–	COc1cc(OC)c(Cl)c(NC(=O)N(C)c2cc(Nc3ccc4c(c3)OC[C@H]3CN(C)CC(=O)N43)ncn2)c1Cl [Compound 9R]
< 10 nM	–	< 10 nM	–	< 10 nM	COc1cc(OC)c(Cl)c(NC(=O)N(C)c2cc(Nc3ccc(N4CC5CN(C)CC(C4)C5(F)F)cc3)ncn2)c1Cl [Compound 3]
